Assay results from paper PMC9738727, “Purification and Characterization of Novel Anti-MRSA Peptides Produced by Brevibacillus sp. SPR-20” (Molecules, 2022).
Ends that are not written are not given here.

Legend:
MRSA isolate 2468 [1] = assay: Agar well diffusion, arbitrary activity of purification fractions; assay type: cell-based, Staphylococcus aureus; settings: 2-fold dilutions, AU per mg total protein
Description: Eight milliliters of the SPR-20 starter culture was added to 392 mL of Luria–Bertani (LB) broth (Titan Biotech Ltd., Rajasthan, India) in a 2 L flask. The culture was incubated at 30 °C and 150 rpm for 24 h before the crude supernatant was collected by centrifugation at 10,000× g and 4 °C for 15 min. Ammonium sulfate at 75% of saturation was added to the supernatant, and the precipitate was desalted by dialysis using a 3.5 kDa molecular weight cut-off (MWCO) SnakeSkin membrane (Pierce, Rockford, IL, USA) in the dialysis buffer (50 mM ammonium acetate pH 5.0 and 50 mM NaCl) at 4 °C for 16 h. The sample solution was purified by a HiTrap SP column under the elution gradient of buffer A (50 mM ammonium acetate pH 5.0 and 50 mM NaCl) and buffer B (50 mM ammonium acetate pH 5.0 and 1 M NaCl). The flow rate was set at 3 mL/min, and the wavelength was monitored at 214 nm. […] The peak was detected at 214 nm. […] The active fractions obtained from each purification step were prepared at different concentrations using 2-fold dilution, and the antimicrobial activity against MRSA isolate 2468 was determined by agar well diffusion assay.
The antimicrobial activity was measured by an agar well diffusion test with some modified methods. […] Each experiment was performed in three independent replicates, and the inhibition zone was measured and expressed as mean ± SD.

S. aureus TISTR 517 [2] = assay: microbe, parasite or virus in culture; assay type: cell-based, Staphylococcus aureus; settings: P1 at 15 µg/mL, from vancomycin standard curve
Description: (§1) The antimicrobial activity was measured by an agar well diffusion test with some modified methods. In brief, single colonies of the tested strains were suspended in 0.85% NaCl, and then the OD at 625 nm was adjusted to 0.1. The cell suspensions were spread on MH agar, and the tested samples (100 μL) were introduced into each well before incubation at 37 °C for 24 h. Each experiment was performed in three independent replicates, and the inhibition zone was measured and expressed as mean ± SD.
(§2) The agar well diffusion test was performed in triplicate for potency determination, using S. aureus TISTR 517 and MRSA isolate 2468 as the tested bacteria. […] The remaining standard and sample solutions were transferred to the other 3 wells. The plates were incubated at 37 °C for 18 h.

MRSA isolate 2468 [3] = assay: microbe, parasite or virus in culture; assay type: cell-based, Staphylococcus aureus; settings: P1 at 15 µg/mL, from vancomycin standard curve
Description: as §1, §2

S. aureus TISTR 517 [4] = assay: Cell lysis (OD 625 nm), leakage of genetic materials (A260) and viable count; assay type: cell-based, Staphylococcus aureus
Description: (§3) The lysis of bacterial cells was monitored by measuring the OD reduction at 625 nm, whereas the leakage of genetic material was evaluated by measuring the absorbance at 260 nm. Briefly, the bacterial colonies were collected from MH agar and then washed with PBS pH 7.4 three times. The OD at 625 nm of the washed cells was adjusted to 0.35 with PBS pH 7.4 supplemented with an incomplete medium (4% CAMHB) before the cells were transferred to a 96-well plate (100 μL/well). […] For each treatment condition at different time intervals, the reduction in OD at 625 nm was determined, and the supernatant of the treated samples was collected to measure the absorbance at 260 nm. The experiment was performed in triplicate, and the results were expressed as mean ± SD. Two-way ANOVA and post hoc Tukey’s test (p-value < 0.05) were used to determine the significance of differences between treated and non-treated samples.

MRSA isolate 2468 [5] = assay: as above; assay type: cell-based, Staphylococcus aureus; settings: for cell lysis (OD 625 nm reduction): within 1 h, PBS pH 7.4 + 4% CAMHB, mean ± SD, triplicate
Description: as §3

S. aureus TISTR 517 [6] = assay: Thermal, surfactant and pH stability, remaining activity by agar well diffusion; assay type: physicochemical, Staphylococcus aureus; settings: for % Remaining Activity: P1 15 μg/mL, vancomycin 300 μg/mL, mean ± SD, n=3
Description: as §1
(§4) The stability of the anti-MRSA peptide against several conditions was studied. […] The sensitivity of the peptide sample to proteolytic enzymes was investigated by incubating the sample with proteinase K, trypsin, and α-chymotrypsin (1 mg/mL) for 1 h. Surfactant compatibility of the substance was examined by incubating the sample with 1% SDS and 1% Triton X-100 for 1 h (AppliChem GmbH, Darmstadt, Germany). The acid and base hydrolysis property of the substance was assessed by pH adjustment to 2–14 for 1 h before the samples were neutralized to pH 7. After all treatments, the antimicrobial assay by agar well diffusion against S. aureus TISTR 517 and MRSA isolate 2468 was performed in three independent experiments. The stability profiles were presented as the percentage of activity relative to the untreated condition (mean ± SD), and significant difference was determined by the Student’s t-test at a p-value < 0.05.

MRSA isolate 2468 [7] = assay: as above; assay type: physicochemical, Staphylococcus aureus; settings: P1 15 μg/mL, vancomycin 300 μg/mL, mean ± SD, n=3
Description: as §1, §4

[8] = 60 °C, 1 h, % of untreated sample
[9] = 80 °C, 1 h, % of untreated sample
[10] = 100 °C, 1 h, % of untreated sample
[11] = […], 15 psi, 15 min (autoclave), % of untreated sample
[12] = pH 2, 1 h, then neutralized to pH 7
[13] = pH 4, 1 h, then neutralized to pH 7
[14] = pH 5, 1 h, then neutralized to pH 7
[15] = pH 6, 1 h, then neutralized to pH 7
[16] = pH 8, 1 h, then neutralized to pH 7
[17] = pH 9, 1 h, then neutralized to pH 7
[18] = pH 11, 1 h, then neutralized to pH 7
[19] = pH 12, 1 h, then neutralized to pH 7
[20] = pH 13, 1 h, then neutralized to pH 7
[21] = pH 14, 1 h, then neutralized to pH 7
[22] = sample + 1% SDS, 1 h, % of untreated sample
[23] = sample + 1% Triton X-100, 1 h, % of untreated sample

With VVVNVLVKVLPPPVV [Peptide P1] the “Specific Activity” value (MRSA isolate 2468 [1]) was 1694 AU/mg, the “vancomycin concentration of equivalent potency” value (S. aureus TISTR 517 [2]) was 76.29 to 87.36 µg/mL and the “vancomycin concentration of equivalent potency” value (MRSA isolate 2468 [3]) was 85.97 to 109.05 µg/mL. For the same sequence, the “increase of genetic content in the supernatant (A260)” value (S. aureus TISTR 517 [4]; 30 min, 1×-4× MIC) was 1.09–1.60 times, the “inhibition by viable cell count” value (S. aureus TISTR 517 [4]; 24 h, 1× MIC) was 8.60 ± 0.26% and the cell lysis (S. aureus TISTR 517 [4]; 24 h, 1×-4× MIC) was “more than 39.67%”. The “increase of genetic release (A260)” value (S. aureus TISTR 517 [4]; 24 h, 1×-4× MIC) was 2.05–2.29 times, the “inhibition by viable cell count” value (S. aureus TISTR 517 [4]; 24 h, 2× MIC) was 67.63 ± 1.96% and the “inhibition by viable cell count” value (S. aureus TISTR 517 [4]; 24 h, 4× MIC) was 94.35 ± 9.78%. For the same sequence, the “cells destroyed (OD 625 nm reduction)” value (S. aureus TISTR 517 [4]; first hour, 1× MIC, PBS pH 7.4 + 4% CAMHB, mean ± SD, triplicate) was 21.08 ± 1.11%, the “increase of genetic content in the supernatant (A260)” value (MRSA isolate 2468 [5]; 30 min, 1×-4× MIC) was 1.15–1.47 times and the “inhibition by viable cell count” value (MRSA isolate 2468 [5]; 24 h, 1× MIC) was 34.46 ± 0.64%. For the same sequence, the “increase of genetic release (A260)” value (MRSA isolate 2468 [5]; 24 h, 1×-4× MIC) was 1.81–2.07 times, the “inhibition by viable cell count” value (MRSA isolate 2468 [5]; 24 h, 2× MIC) was 64.47 ± 3.56% and the “inhibition by viable cell count” value (MRSA isolate 2468 [5]; 24 h, 4× MIC) was 96.13 ± 6.70%. For the same sequence, the “cell lysis (OD 625 nm reduction)” value (MRSA isolate 2468 [5]; 1× MIC) was 12.68 ± 13.57%, the “cell lysis (OD 625 nm reduction)” value (MRSA isolate 2468 [5]; 2× MIC) was 26.13 ± 9.48% and the “cell lysis (OD 625 nm reduction)” value (MRSA isolate 2468 [5]; 4× MIC) was 20.75 ± 2.75%. For the same sequence, the “% Remaining Activity” value (S. aureus TISTR 517 [6]; [8]) was 100.49 ± 0.84%, the “% Remaining Activity” value (S. aureus TISTR 517 [6]; [9]) was 100.00 ± 0.84% and the “% Remaining Activity” value (S. aureus TISTR 517 [6]; [10]) was 100.00 ± 0.84%. For the same sequence, the “% Remaining Activity” value (S. aureus TISTR 517 [6]; [11]) was 98.54 ± 1.69%, the “% Remaining Activity” value (S. aureus TISTR 517 [6]; [12]) was 98.48 ± 3.17% and the “% Remaining Activity” value (S. aureus TISTR 517 [6]; [13]) was 97.97 ± 5.77%. The “% Remaining Activity” value (S. aureus TISTR 517 [6]; [14]) was 97.46 ± 2.64%, the “% Remaining Activity” value (S. aureus TISTR 517 [6]; [15]) was 97.97 ± 3.17% and the “% Remaining Activity” value (S. aureus TISTR 517 [6]; pH 7, 1 h) was 97.97 ± 1.76%. The “% Remaining Activity” value (S. aureus TISTR 517 [6]; [16]) was 102.54 ± 3.17%, the “% Remaining Activity” value (S. aureus TISTR 517 [6]; [17]) was 100.00 ± 1.49% and the “% Remaining Activity” value (S. aureus TISTR 517 [6]; [18]) was 98.01 ± 2.28%. The “% Remaining Activity” value (S. aureus TISTR 517 [6]; [19]) was 96.52 ± 2.28%, the “% Remaining Activity” value (S. aureus TISTR 517 [6]; [20]) was 98.51 ± 1.49% and the “% Remaining Activity” value (S. aureus TISTR 517 [6]; [21]) was 101.00 ± 1.72%. The “% Remaining Activity” value (S. aureus TISTR 517 [6]; [22]) was 114.49 ± 3.53 %, the “% Remaining Activity” value (S. aureus TISTR 517 [6]; [23]) was 125.23 ± 2.92 % and the “activity remaining under several stress conditions” value (S. aureus TISTR 517 [6]; text summary of Table 6, both test strains) was “over 90%”. The “% Remaining Activity” value (MRSA isolate 2468 [7]; [8]) was 100.00 ± 0.79%, the “% Remaining Activity” value (MRSA isolate 2468 [7]; [9]) was 99.08 ± 0.00% and the “% Remaining Activity” value (MRSA isolate 2468 [7]; [10]) was 98.62 ± 0.79%. The “% Remaining Activity” value (MRSA isolate 2468 [7]; [11]) was 98.62 ± 0.79%, the “% Remaining Activity” value (MRSA isolate 2468 [7]; [12]) was 97.57 ± 1.46% and the “% Remaining Activity” value (MRSA isolate 2468 [7]; [13]) was 99.03 ± 1.46%. For the same sequence, the “% Remaining Activity” value (MRSA isolate 2468 [7]; [14]) was 97.09 ± 1.68%, the “% Remaining Activity” value (MRSA isolate 2468 [7]; [15]) was 97.57 ± 3.85% and the “% Remaining Activity” value (MRSA isolate 2468 [7]; pH 7, 1 h) was 97.57 ± 5.25%. For the same sequence, the “% Remaining Activity” value (MRSA isolate 2468 [7]; [16]) was 97.09 ± 2.22%, the “% Remaining Activity” value (MRSA isolate 2468 [7]; [17]) was 98.03 ± 1.71% and the “% Remaining Activity” value (MRSA isolate 2468 [7]; [18]) was 98.03 ± 2.26%. The “% Remaining Activity” value (MRSA isolate 2468 [7]; [19]) was 97.54 ± 0.00%, the “% Remaining Activity” value (MRSA isolate 2468 [7]; [20]) was 99.51 ± 0.85% and the “% Remaining Activity” value (MRSA isolate 2468 [7]; [21]) was 100.00 ± 3.08%. The “% Remaining Activity” value (MRSA isolate 2468 [7]; [22]) was 117.13 ± 1.60 % and the “% Remaining Activity” value (MRSA isolate 2468 [7]; [23]) was 115.74 ± 0.80 %.
